In brackets after ≈: the same amount, converted by molar mass. Like-named read-outs stand apart in the source and are kept apart here.
Key:
Plasmodium falciparum = conditions: cited from earlier work; for antimalarial activity: among 20 nature identical essential oil constituents
[1] = test system: Trichomonas vaginalis cells, TVH1 strain; format: cell-based; conditions: for inhibition at 0.2 µg/mL / inhibition at 0.4 µg/mL / inhibition at 0.8 µg/mL / inhibition at 1.6 µg/mL / inhibition at 3.1 µg/mL / inhibition at 6.2 µg/mL / inhibition at 3.9 µg/mL / inhibition at 7.8 µg/mL / inhibition at 15.6 µg/mL / inhibition at 31.2 µg/mL / inhibition at 62.5 µg/mL / inhibition at 250 µg/mL: read-out: Growth inhibition percent (Mean ± SD)
[2] = test system: Trichomonas vaginalis cells, TVH1 strain; assay: Annexin V/PI apoptosis assay by flow cytometry; format: cell-based; conditions: sub-MLC concentration, 24 hours
[3] = test system: promastigotes of L. amazonensis; conditions: cited from earlier work
[4] = test system: intramacrophagic amastigotes of L. amazonensis; conditions: cited from earlier work
MTT cytotoxicity assay = format: cell-based; conditions: African green monkey, Vero cells
Vero cells = assay: MTT cytotoxicity assay; format: cell-based; conditions: for CC50: Vero cells

Compound: C=CC(C)(O)CCC=C(C)CCC=C(C)C (mixture of isomers) [nerolidol]
- antimalarial activity (Plasmodium falciparum): most potent antimalarial activity

Compound: Cc1ncc([N+](=O)[O-])n1CCO [Metronidazole, reference compound]
- MLC (minimum lethal concentration) ([1]; 12 hours incubation): 25 µg/mL (≈ 146 µM)
- MLC (minimum lethal concentration) ([1]; 48 hours incubation): 6.25 µg/mL (≈ 36.5 µM)
- drug susceptibility of the isolate ([1]; TVH1 isolate): sensitive
- inhibition at 0.2 µg/mL ([1]; Trichomonas vaginalis, 12 h): 4.9 ± 3.9%
- inhibition at 0.4 µg/mL ([1]; Trichomonas vaginalis, 12 h): 19.3 ± 5.5%
- inhibition at 0.8 µg/mL ([1]; Trichomonas vaginalis, 12 h): 38.9 ± 7.1%
- inhibition at 1.6 µg/mL ([1]; Trichomonas vaginalis, 12 h): 59.2 ± 8.6%
- inhibition at 3.1 µg/mL ([1]; Trichomonas vaginalis, 12 h): 64.6 ± 5.3%
- inhibition at 6.2 µg/mL ([1]; Trichomonas vaginalis, 12 h): 77.5 ± 6.3%
- inhibition at 0.2 µg/mL ([1]; Trichomonas vaginalis, 24 h): 10.3 ± 6.7%
- inhibition at 0.4 µg/mL ([1]; Trichomonas vaginalis, 24 h): 32.8 ± 2.6%
- inhibition at 0.8 µg/mL ([1]; Trichomonas vaginalis, 24 h): 55 ± 4.6%
- inhibition at 1.6 µg/mL ([1]; Trichomonas vaginalis, 24 h): 72.6 ± 2.3%
- inhibition at 3.1 µg/mL ([1]; Trichomonas vaginalis, 24 h): 84.6 ± 2.7%
- inhibition at 6.2 µg/mL ([1]; Trichomonas vaginalis, 24 h): 93.4 ± 0.6%
- inhibition at 0.2 µg/mL ([1]; Trichomonas vaginalis, 48 h): 25.9 ± 4.8%
- inhibition at 0.4 µg/mL ([1]; Trichomonas vaginalis, 48 h): 44 ± 2.2%
- inhibition at 0.8 µg/mL ([1]; Trichomonas vaginalis, 48 h): 73.4 ± 2.5%
- inhibition at 1.6 µg/mL ([1]; Trichomonas vaginalis, 48 h): 91.5 ± 2.3%
- inhibition at 3.1 µg/mL ([1]; Trichomonas vaginalis, 48 h): 98.2 ± 0.4%
- inhibition at 6.2 µg/mL ([1]; Trichomonas vaginalis, 48 h): 100%

Compound: C=CC(C)(CCC=C(C)C)OC(C)=O (stereo not shown) [linalyl acetate]
- antimalarial activity (Plasmodium falciparum): most potent antimalarial activity

Compound: CC(C)=C1CC[C@@H](C)CC1=O [pulegone]
- antimalarial activity (Plasmodium falciparum): most potent antimalarial activity

Compound: CC1=CCC2CC1C2(C)C (stereo not drawn) [α-Pinene]
- necrotic effect [2]: 50.5%
- IC50 [3]: 19.7 µg/mL (≈ 145 µM)
- IC50 (cytotoxic effect) [4]: 15.6 µg/mL (≈ 115 µM)
- CC50 at 12 h (MTT cytotoxicity assay): 226 µg/mL (≈ 1660 µM)
- CC50 at 24 h (MTT cytotoxicity assay): 209 µg/mL (≈ 1530 µM)
- CC50 at 48 h (MTT cytotoxicity assay): 116 µg/mL (≈ 851 µM)
- SI (selectivity index = CC50/IC50) (Vero cells; Vero CC50 / Trichomonas IC50, 12 hours): 5.8
- SI (selectivity index = CC50/IC50) (Vero cells; Vero CC50 / Trichomonas IC50, 24 hours): 6.9
- SI (selectivity index = CC50/IC50) (Vero cells; Vero CC50 / Trichomonas IC50, 48 hours): 5
- average selectivity index (SI) (Vero cells; average of 12, 24 and 48 hours): 5.9
- MLC (minimum lethal concentration) ([1]; 12 hours incubation): 250 µg/mL (≈ 1840 µM)
- MLC (minimum lethal concentration) ([1]; 24 hours incubation): 125 µg/mL (≈ 918 µM)
- MLC (minimum lethal concentration) ([1]; 48 hours incubation): 125 µg/mL (≈ 918 µM)
- IC50 ([1]; Trichomonas vaginalis, 12 h): 38.9 µg/mL (≈ 286 µM)
- inhibition at 3.9 µg/mL ([1]; Trichomonas vaginalis, 12 h): 21.4 ± 7.6%
- inhibition at 7.8 µg/mL ([1]; Trichomonas vaginalis, 12 h): 26.3 ± 5.5%
- inhibition at 15.6 µg/mL ([1]; Trichomonas vaginalis, 12 h): 40.2 ± 6.3%
- inhibition at 31.2 µg/mL ([1]; Trichomonas vaginalis, 12 h): 48.5 ± 4.1%
- inhibition at 62.5 µg/mL ([1]; Trichomonas vaginalis, 12 h): 54.5 ± 3.3%
- inhibition at 250 µg/mL ([1]; Trichomonas vaginalis, 12 h): 100%
- IC50 ([1]; Trichomonas vaginalis, 24 h): 30.2 µg/mL (≈ 222 µM)
- inhibition at 3.9 µg/mL ([1]; Trichomonas vaginalis, 24 h): 15.5 ± 5.8%
- inhibition at 7.8 µg/mL ([1]; Trichomonas vaginalis, 24 h): 29.2 ± 6.3%
- inhibition at 15.6 µg/mL ([1]; Trichomonas vaginalis, 24 h): 69.3 ± 7.7%
- inhibition at 31.2 µg/mL ([1]; Trichomonas vaginalis, 24 h): 76.5 ± 8.8%
- inhibition at 62.5 µg/mL ([1]; Trichomonas vaginalis, 24 h): 80.9 ± 6.4%
- inhibition at 250 µg/mL ([1]; Trichomonas vaginalis, 24 h): 100%
- IC50 ([1]; Trichomonas vaginalis, 48 h): 22.9 µg/mL (≈ 168 µM)
- inhibition at 3.9 µg/mL ([1]; Trichomonas vaginalis, 48 h): 10.2 ± 6.5%
- inhibition at 7.8 µg/mL ([1]; Trichomonas vaginalis, 48 h): 45.3 ± 4.7%
- inhibition at 15.6 µg/mL ([1]; Trichomonas vaginalis, 48 h): 74.3 ± 5.2%
- inhibition at 31.2 µg/mL ([1]; Trichomonas vaginalis, 48 h): 84.1 ± 4.3%
- inhibition at 62.5 µg/mL ([1]; Trichomonas vaginalis, 48 h): 96.7 ± 6.2%
- inhibition at 250 µg/mL ([1]; Trichomonas vaginalis, 48 h): 100%
- IC50 ([1]; Trichomonas vaginalis, read-out: IC50 (range over incubation times)): 22.9 to 38.9 µg/mL (≈ 168 to 286 µM)
- IC50 ([1]; Trichomonas vaginalis, read-out: mean IC50): 30.7 µg/mL (≈ 225 µM)
- antimalarial activity (Plasmodium falciparum): most potent antimalarial activity
- IC50 (Plasmodium falciparum; read-out: IC 50 (growth inhibition)): 1200 ± 200 nM

Compound: Tannic acid
- necrotic effect [2]: 31.9%
- CC50 (Vero cells; 12 hours): 747 µg/mL
- CC50 (Vero cells; 24 hours): 677 µg/mL
- CC50 (Vero cells; 48 hours): 473 µg/mL
- Growth inhibition percent (Mean ± SD) ([1]; 62.5 μg/ml, 12 hours): 1.4 ± 5.2%
- Growth inhibition percent (Mean ± SD) ([1]; 62.5 μg/ml, 24 hours): 4.3 ± 4.9%
- Growth inhibition percent (Mean ± SD) ([1]; 62.5 μg/ml, 48 hours): 21.1 ± 6.2%
- Growth inhibition percent (Mean ± SD) ([1]; 250 μg/ml, 12 hours): 13.4 ± 8.3%
- Growth inhibition percent (Mean ± SD) ([1]; 250 μg/ml, 24 hours): 26.4 ± 3.9%
- Growth inhibition percent (Mean ± SD) ([1]; 250 μg/ml, 48 hours): 71.5 ± 6.8%
- Growth inhibition percent (Mean ± SD) ([1]; 500 μg/ml, 12 hours): 16.9 ± 5.2%
- Growth inhibition percent (Mean ± SD) ([1]; 500 μg/ml, 24 hours): 33.8 ± 4.8%
- Growth inhibition percent (Mean ± SD) ([1]; 500 μg/ml, 48 hours): 74.9 ± 5.1%
- Growth inhibition percent (Mean ± SD) ([1]; 1000 μg/ml, 12 hours): 19.8 ± 6.7%
- Growth inhibition percent (Mean ± SD) ([1]; 1000 μg/ml, 24 hours): 59.9 ± 6.2%
- Growth inhibition percent (Mean ± SD) ([1]; 1000 μg/ml, 48 hours): 87.6 ± 4.4%
- Growth inhibition percent (Mean ± SD) ([1]; 2000 μg/ml, 12 hours): 78.8 ± 5.1%
- Growth inhibition percent (Mean ± SD) ([1]; 2000 μg/ml, 24 hours): 80.4 ± 3.8%
- Growth inhibition percent (Mean ± SD) ([1]; 2000 μg/ml, 48 hours): 100 ± 0.0%
- Growth inhibition percent (Mean ± SD) ([1]; 4000 μg/ml, 12 hours): 100 ± 0.0%
- Growth inhibition percent (Mean ± SD) ([1]; 4000 μg/ml, 24 hours): 100 ± 0.0%
- Growth inhibition percent (Mean ± SD) ([1]; 4000 μg/ml, 48 hours): 100 ± 0.0%
- IC50 ([1]; 12 hours incubation): 1398 µg/mL
- MLC (minimum lethal concentration) ([1]; 12 hours incubation): 4000 µg/mL
- IC50 ([1]; 24 hours incubation): 689 µg/mL
- MLC (minimum lethal concentration) ([1]; 24 hours incubation): 4000 µg/mL
- IC50 ([1]; 48 hours incubation): 140 µg/mL
- MLC (minimum lethal concentration) ([1]; 48 hours incubation): 2000 µg/mL
- mean IC50 ([1]; average of 12, 24 and 48 hours): 742.3 µg/mL

— paper PMC11033537 (Iranian Journal of Parasitology, 2024)
